Experimental data reported in patent publication US8288385B2, “6-(3-aza-bicyclo[3.1.0]hex-3-yl)-2-phenyl-pyrimidines” (Actelion Pharmaceuticals Ltd., priority 2009, dated 2012).

Biological target: T1, human P2Y12 receptor (Homo sapiens, UniProt Q9H244)
T1 construct: expressed in transfected cells; host or cells: Chinese Hamster Ovary (CHO) cells
Assay: P2Y12 receptor binding assay
Conditions: CHO cells with recombinant expression of the human P2Y12 receptor; tritium-labeled 2-methyl-S-ADP; RT, 2 hours
Protocol: P2Y12 Receptor Binding Assay
Chinese Hamster Ovary (CHO) cells with recombinant expression of the human P2Y12 receptor were cultured in 24 well cell-culture plates. Cells were washed three times with binding buffer (50 mM Tris pH 7.4, 100 mM NaCl, 1 mM EDTA, 0.5% BSA). The cells were then incubated with 0.5 ml per well binding buffer containing tritium-labeled 2-methyl-thio-adenosine 5′-diphosphate (2-methyl-S-ADP) (between 100,000 and 300,000 dpm per well) and various concentrations of test compounds. After incubation at RT for 2 hours, cells were washed three times with binding buffer. Then, cells were solubilized by addition of 0.5 ml solubilization buffer (SDS, NaOH, EDTA). The content of each well was then transferred into beta-counter vials and 2.0 ml of Ultima Gold Scintillation liquid was added.

T1 sequence (Q9H244 whole entry): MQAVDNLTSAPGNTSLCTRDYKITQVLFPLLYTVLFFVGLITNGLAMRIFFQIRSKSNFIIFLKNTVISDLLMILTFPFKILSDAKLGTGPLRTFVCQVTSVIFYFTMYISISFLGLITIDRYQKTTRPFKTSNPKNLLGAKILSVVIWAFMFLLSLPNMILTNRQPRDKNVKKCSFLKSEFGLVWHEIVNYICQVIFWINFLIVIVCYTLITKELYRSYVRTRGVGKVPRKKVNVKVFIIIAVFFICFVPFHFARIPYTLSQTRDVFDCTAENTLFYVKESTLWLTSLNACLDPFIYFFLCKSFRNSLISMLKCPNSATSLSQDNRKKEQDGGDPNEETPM

Row | SMILES | IC50
1 | CCOC(=O)N1CCN(C(=O)C(NC(=O)c2cc(N3CC4C(C3)C4C(=O)O)nc(-c3ccccc3)n2)C(C)C)CC1 [Example 13, (1α,5α,6β)-3-{6-[(S)-1-(4-Ethoxycarbonyl-piperazine-1-carbonyl)-2-methyl-propylcarbamoyl]-2-phenyl-pyrimidin-4-yl}-3-aza-bicyclo[3.1.0]hexane-6-carboxylic acid] | 96 nM
2 | CCCCOC(=O)N1CCN(C(=O)[C@@H](NC(=O)c2cc(N3C[C@@H]4[C@H](C3)[C@@H]4C(=O)O)nc(-c3ccccc3)n2)C2CC2)CC1 [Example 41, (1α,5α,6β)-3-{6-[(S)-2-(4-Butoxycarbonyl-piperazin-1-yl)-1-cyclopropyl-2-oxo-ethylcarbamoyl]-2-phenyl-pyrimidin-4-yl}-3-aza-bicyclo[3.1.0]hexane-6-carboxylic acid] | 22 nM
3 | CCCCOC(=O)N1CCN(C(=O)[C@@H](NC(=O)c2cc(N3C[C@@H]4[C@H](C3)[C@H]4C(N)=O)nc(-c3ccccc3)n2)C(C)C)CC1 [Example 17, 4-((S)-2-{[6-((1α,5α,6α)-6-Carbamoyl-3-aza-bicyclo[3.1.0]hex-3-yl)-2-phenyl-pyrimidine-4-carbonyl]-amino}-3-methyl-butyryl)-piperazine-1-carboxylic acid butyl ester] | 13 nM
4 | CCCCOC(=O)N1CCN(C(=O)[C@@H](NC(=O)c2cc(N3C[C@@H]4[C@H](C3)[C@@H]4C(=O)O)nc(-c3cccc(C(F)(F)F)c3)n2)C(C)C)CC1 [Example 30, (1α,5α,6β)-3-[6-[(S)-1-(4-Butoxycarbonyl-piperazine-1-carbonyl)-2-methyl-propylcarbamoyl]-2-(3-trifluoromethyl-phenyl)-pyrimidin-4-yl]-3-aza-bicyclo[3.1.0]hexane-6-carboxylic acid] | 250 nM
5 | CCCCOC(=O)N1CCN(C(=O)[C@H](CCCC)NC(=O)c2cc(N3C[C@@H]4[C@H](C3)[C@@H]4C(=O)O)nc(-c3ccccc3)n2)CC1 [Example 38, (1α,5α,6β)-3-{6-[(S)-1-(4-Butoxycarbonyl-piperazine-1-carbonyl)-pentylcarbamoyl]-2-phenyl-pyrimidin-4-yl}-3-aza-bicyclo[3.1.0]hexane-6-carboxylic acid] | 136 nM
6 | CCCCOC(=O)N1CCN(C(=O)[C@H](CCC(=O)O)NC(=O)c2cc(N3C[C@@H]4[C@H](C3)[C@H]4NC(=O)OC(C)(C)C)nc(-c3ccccc3)n2)CC1 [Example 5, 4-((S)-2-{[6-((1α,5α,6α)-6-tert-Butoxycarbonylamino-3-aza-bicyclo[3.1.0]hex-3-yl)-2-phenyl-pyrimidine-4-carbonyl]amino}-4-carboxy-butyryl)-piperazine-1-carboxylic acid butyl ester] | 6.2 nM
7 | CC(C)[C@H](NC(=O)c1cc(N2C[C@@H]3C(C(=O)O)[C@@H]3C2)nc(-c2ccccc2)n1)C(=O)N1CCN(C(=O)OCc2ccccc2)[C@H](C)C1 (stereo partly drawn) [Example 32, (1α,5α,6β)-3-{6-[(S)-1-((R)-4-Benzyloxycarbonyl-3-methyl-piperazine-1-carbonyl)-2-methyl-propylcarbamoyl]-2-phenyl-pyrimidin-4-yl}-3-aza-bicyclo[3.1.0]hexane-6-carboxylic acid] | 477 nM
8 | CCCOC(=O)N1CCN(C(=O)[C@@H](NC(=O)c2cc(N3C[C@@H]4[C@H](C3)[C@@H]4C(=O)O)nc(-c3ccccc3)n2)C(C)C)CC1 [Example 14, (1α,5α,6β)-3-{6-[(S)-2-Methyl-1-(4-propoxycarbonyl-piperazine-1-carbonyl)-propylcarbamoyl]-2-phenyl-pyrimidin-4-yl}-3-aza-bicyclo[3.1.0]hexane-6-carboxylic acid] | 60 nM
9 | CCCCOC(=O)N1CCN(C(=O)[C@H](C)NC(=O)c2cc(N3C[C@@H]4[C@H](C3)[C@H]4C(=O)O)nc(-c3ccccc3)n2)CC1 [Example 34, (1α,5α,6α)-3-{6-[(S)-2-(4-Butoxycarbonyl-piperazin-1-yl)-1-methyl-2-oxo-ethylcarbamoyl]-2-phenyl-pyrimidin-4-yl}-3-aza-bicyclo[3.1.0]hexane-6-carboxylic acid] | 229 nM
10 | CCCCOC(=O)N1CCN(C(=O)[C@@H](NC(=O)c2cc(N3C[C@@H]4[C@H](C3)[C@@H]4C(N)=O)nc(-c3ccccc3)n2)C(C)C)CC1 [Example 20, 4-((S)-2-{[6-((1α,5α,6β)-6-Carbamoyl-3-aza-bicyclo[3.1.0]hex-3-yl)-2-phenyl-pyrimidine-4-carbonyl]-amino}-3-methyl-butyryl)-piperazine-1-carboxylic acid butyl ester] | 20 nM
11 | CCCCOC(=O)N1CCN(C(=O)[C@@H](NC(=O)c2cc(N3C[C@@H]4[C@H](C3)[C@H]4c3nnn[nH]3)nc(-c3ccccc3)n2)C(C)C)CC1 [Example 19] | 12 nM
12 | CCCCOC(=O)N1CCN(C(=O)[C@H](CCC(=O)O)NC(=O)c2cc(N3C[C@@H]4[C@H](C3)[C@@H]4NC(=O)OC(C)(C)C)nc(-c3ccccc3)n2)CC1 [Example 6, 4-((S)-2-{[6-((1α,5α,6β)-6-tert-Butoxycarbonylamino-3-aza-bicyclo[3.1.0]hex-3-yl)-2-phenyl-pyrimidine-4-carbonyl]-amino}-4-carboxy-butyryl)-piperazine-1-carboxylic acid butyl ester] | 7.3 nM
13 | CCCCOC(=O)N1CCN(C(=O)[C@H](CCC)NC(=O)c2cc(N3C[C@@H]4[C@H](C3)[C@@H]4C(=O)O)nc(-c3ccccc3)n2)CC1 [Example 37, (1α,5α,6β)-3-{6-[(S)-1-(4-Butoxycarbonyl-piperazine-1-carbonyl)-butylcarbamoyl]-2-phenyl-pyrimidin-4-yl}-3-aza-bicyclo[3.1.0]hexane-6-carboxylic acid] | 123 nM
14 | CCCCOC(=O)N1CCN(C(=O)[C@@H](NC(=O)c2cc(N3C[C@@H]4[C@H](C3)[C@H]4C(=O)O)nc(-c3ccccc3)n2)C(C)(C)C)CC1 [Example 44, (1α,5α,6α)-3-{6-[(S)-1-(4-Butoxycarbonyl-piperazine-1-carbonyl)-2,2-dimethyl-propylcarbamoyl]-2-phenyl-pyrimidin-4-yl}-3-aza-bicyclo[3.1.0]hexane-6-carboxylic acid] | 903 nM
15 | CCCCOC(=O)N1CCN(C(=O)[C@H](CCc2nnn[nH]2)NC(=O)c2cc(N3C[C@@H]4[C@H](C3)[C@@H]4C(=O)O)nc(-c3ccccc3)n2)CC1 [Example 49, (1α,5α,6β)-3-{6-[(S)-1-(4-Butoxycarbonyl-piperazine-1-carbonyl)-3-(1H-tetrazol-5-yl)-propylcarbamoyl]-2-phenyl-pyrimidin-4-yl}-3-aza-bicyclo[3.1.0]hexane-6-carboxylic acid] | < 3.2 nM
